What was measured:
Assay in all cases: Eurofins kinase panel
Type in all cases: biochemical
Details in all cases: read-out: Inhibition rate (%)
NIM1(h) = target: T1, NIM1(h) (Homo sapiens, UniProt Q8IY84)
T1 construct: purchased Eurofins (KinaseProfiler)

TTK(h) = target: T2, TTK(h) (Homo sapiens, UniProt P33981)
T2 construct: purchased Eurofins (KinaseProfiler)
T2 sequence (P33981 1-857): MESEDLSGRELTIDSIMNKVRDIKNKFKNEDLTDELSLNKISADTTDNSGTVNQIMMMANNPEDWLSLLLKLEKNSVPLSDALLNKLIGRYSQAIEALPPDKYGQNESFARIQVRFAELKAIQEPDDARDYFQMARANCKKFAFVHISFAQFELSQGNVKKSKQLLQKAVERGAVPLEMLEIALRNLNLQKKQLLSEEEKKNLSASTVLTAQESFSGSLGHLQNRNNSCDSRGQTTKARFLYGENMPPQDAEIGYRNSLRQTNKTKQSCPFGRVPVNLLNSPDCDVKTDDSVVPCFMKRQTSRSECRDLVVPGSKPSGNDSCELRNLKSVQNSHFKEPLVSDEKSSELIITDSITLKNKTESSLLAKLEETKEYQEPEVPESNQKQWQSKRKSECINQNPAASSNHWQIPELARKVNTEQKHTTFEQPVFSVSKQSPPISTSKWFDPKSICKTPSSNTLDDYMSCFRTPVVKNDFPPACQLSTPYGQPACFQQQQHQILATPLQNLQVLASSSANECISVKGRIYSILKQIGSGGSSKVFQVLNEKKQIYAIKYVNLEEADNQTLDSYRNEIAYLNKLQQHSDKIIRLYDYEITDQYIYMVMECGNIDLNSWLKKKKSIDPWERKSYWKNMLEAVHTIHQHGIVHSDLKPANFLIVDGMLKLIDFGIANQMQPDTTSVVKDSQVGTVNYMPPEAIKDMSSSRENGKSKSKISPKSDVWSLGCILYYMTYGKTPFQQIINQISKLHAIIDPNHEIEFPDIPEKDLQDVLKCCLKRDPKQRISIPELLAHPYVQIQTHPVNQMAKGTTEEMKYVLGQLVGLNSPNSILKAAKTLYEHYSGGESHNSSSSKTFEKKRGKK

[1] = target: T3, PI3 Kinase (p110α/p85α)(h) (Homo sapiens, UniProt P42336)
T3 construct: purchased Eurofins (KinaseProfiler)
T3 sequence (P42336 whole entry): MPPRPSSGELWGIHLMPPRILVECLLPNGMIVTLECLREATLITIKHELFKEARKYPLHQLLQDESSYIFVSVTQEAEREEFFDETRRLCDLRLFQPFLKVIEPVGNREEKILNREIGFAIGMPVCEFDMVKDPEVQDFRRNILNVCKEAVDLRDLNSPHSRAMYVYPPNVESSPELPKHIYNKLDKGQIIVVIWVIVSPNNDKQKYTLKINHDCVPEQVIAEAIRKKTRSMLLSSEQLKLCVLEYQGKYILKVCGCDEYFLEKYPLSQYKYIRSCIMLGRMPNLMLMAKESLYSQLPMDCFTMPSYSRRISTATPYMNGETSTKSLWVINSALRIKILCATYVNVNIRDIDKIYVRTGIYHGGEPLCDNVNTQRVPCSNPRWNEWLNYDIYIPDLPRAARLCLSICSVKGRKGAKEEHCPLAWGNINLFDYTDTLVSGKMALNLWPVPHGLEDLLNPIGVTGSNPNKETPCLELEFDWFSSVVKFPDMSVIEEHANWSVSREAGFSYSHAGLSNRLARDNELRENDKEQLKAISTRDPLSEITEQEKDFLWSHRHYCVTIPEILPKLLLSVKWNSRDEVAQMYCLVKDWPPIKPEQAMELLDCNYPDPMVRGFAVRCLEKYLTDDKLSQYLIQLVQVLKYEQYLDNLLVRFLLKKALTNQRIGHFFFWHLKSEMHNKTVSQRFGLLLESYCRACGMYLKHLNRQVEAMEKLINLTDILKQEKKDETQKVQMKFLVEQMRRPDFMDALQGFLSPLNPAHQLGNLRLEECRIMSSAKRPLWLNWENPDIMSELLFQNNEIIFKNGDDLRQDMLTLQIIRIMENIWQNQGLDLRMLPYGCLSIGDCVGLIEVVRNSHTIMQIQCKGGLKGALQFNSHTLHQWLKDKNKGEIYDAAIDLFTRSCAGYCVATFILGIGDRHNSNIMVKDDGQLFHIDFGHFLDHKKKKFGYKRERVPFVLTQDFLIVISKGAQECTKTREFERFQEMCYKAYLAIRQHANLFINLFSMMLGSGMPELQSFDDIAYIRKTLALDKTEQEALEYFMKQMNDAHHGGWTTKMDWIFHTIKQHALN
T3 sequence (P27986 whole entry partner): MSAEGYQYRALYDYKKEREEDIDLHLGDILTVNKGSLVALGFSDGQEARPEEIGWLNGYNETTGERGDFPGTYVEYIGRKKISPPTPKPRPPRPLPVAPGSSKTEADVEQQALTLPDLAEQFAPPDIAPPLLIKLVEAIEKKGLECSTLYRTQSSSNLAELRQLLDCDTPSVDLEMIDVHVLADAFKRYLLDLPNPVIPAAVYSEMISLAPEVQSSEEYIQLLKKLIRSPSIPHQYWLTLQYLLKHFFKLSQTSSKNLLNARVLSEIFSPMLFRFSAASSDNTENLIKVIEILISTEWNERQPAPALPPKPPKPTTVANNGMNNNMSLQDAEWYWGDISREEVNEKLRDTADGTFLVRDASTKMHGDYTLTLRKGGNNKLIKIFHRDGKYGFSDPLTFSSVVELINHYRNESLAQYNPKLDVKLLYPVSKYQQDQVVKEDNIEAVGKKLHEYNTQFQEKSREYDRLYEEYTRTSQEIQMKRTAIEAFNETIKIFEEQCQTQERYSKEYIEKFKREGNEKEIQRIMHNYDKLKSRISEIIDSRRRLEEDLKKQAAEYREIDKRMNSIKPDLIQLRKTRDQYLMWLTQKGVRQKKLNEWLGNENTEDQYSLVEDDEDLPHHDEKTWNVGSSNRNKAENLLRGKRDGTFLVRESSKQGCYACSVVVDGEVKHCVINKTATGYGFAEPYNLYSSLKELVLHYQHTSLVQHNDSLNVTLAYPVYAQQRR

SLK(h) = target: T4, SLK(h) (Homo sapiens, UniProt Q9H2G2)
T4 construct: purchased Eurofins (KinaseProfiler)
T4 sequence (Q9H2G2 whole entry): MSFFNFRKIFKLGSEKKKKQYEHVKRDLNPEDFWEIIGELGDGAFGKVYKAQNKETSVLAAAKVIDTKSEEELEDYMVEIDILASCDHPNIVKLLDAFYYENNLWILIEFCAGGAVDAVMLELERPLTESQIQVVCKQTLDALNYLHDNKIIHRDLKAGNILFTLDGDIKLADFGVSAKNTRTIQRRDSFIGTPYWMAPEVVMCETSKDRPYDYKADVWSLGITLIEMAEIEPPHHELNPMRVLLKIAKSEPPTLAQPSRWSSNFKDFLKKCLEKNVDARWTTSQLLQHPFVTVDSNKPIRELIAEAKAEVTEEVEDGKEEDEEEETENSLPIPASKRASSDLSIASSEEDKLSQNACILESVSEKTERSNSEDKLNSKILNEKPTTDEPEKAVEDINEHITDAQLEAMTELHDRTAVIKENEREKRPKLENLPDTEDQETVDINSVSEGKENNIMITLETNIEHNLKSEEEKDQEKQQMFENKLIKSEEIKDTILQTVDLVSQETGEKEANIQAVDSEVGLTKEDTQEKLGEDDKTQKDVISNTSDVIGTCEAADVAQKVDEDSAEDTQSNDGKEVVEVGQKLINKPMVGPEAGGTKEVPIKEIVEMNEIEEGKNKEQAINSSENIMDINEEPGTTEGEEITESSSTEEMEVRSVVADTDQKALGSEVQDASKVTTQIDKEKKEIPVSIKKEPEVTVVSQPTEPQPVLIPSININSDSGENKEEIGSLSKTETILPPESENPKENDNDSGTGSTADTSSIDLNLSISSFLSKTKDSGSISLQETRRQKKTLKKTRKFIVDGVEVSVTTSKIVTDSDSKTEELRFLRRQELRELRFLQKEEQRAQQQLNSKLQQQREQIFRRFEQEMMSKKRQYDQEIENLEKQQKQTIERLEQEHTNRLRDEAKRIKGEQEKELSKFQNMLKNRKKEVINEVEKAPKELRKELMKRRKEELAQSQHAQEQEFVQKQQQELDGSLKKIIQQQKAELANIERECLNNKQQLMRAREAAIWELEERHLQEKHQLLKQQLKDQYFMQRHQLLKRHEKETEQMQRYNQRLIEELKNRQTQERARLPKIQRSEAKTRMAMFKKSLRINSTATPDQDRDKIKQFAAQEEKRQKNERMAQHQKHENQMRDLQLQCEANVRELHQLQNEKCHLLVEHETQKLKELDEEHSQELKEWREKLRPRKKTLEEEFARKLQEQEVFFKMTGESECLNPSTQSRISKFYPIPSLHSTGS

Rse(h) = target: T5, Rse(h) (Homo sapiens, UniProt Q06418)
T5 construct: purchased Eurofins (KinaseProfiler)
T5 sequence (Q06418 41-890): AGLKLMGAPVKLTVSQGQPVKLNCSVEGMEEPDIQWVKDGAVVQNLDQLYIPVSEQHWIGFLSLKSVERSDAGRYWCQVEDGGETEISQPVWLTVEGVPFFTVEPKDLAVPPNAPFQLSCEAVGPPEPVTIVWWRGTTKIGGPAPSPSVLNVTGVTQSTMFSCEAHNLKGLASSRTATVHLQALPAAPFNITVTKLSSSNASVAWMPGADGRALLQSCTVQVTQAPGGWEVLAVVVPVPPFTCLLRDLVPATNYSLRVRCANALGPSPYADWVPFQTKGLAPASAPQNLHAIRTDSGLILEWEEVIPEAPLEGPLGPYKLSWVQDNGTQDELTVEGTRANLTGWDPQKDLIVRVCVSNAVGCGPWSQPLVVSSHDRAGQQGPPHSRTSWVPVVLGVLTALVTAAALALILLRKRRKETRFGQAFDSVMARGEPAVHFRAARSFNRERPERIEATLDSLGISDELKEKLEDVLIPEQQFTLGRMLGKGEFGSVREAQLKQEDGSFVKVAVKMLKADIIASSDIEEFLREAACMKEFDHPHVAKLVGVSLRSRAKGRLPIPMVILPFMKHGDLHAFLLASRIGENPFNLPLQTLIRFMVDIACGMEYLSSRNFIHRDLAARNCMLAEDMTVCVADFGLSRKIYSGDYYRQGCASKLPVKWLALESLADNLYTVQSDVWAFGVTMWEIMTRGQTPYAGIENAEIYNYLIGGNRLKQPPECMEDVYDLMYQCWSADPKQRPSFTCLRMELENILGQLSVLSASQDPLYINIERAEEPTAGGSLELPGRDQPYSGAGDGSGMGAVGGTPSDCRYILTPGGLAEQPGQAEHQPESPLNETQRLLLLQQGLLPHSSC

LTK(h) = target: T6, LTK(h) (Homo sapiens, UniProt P29376)
T6 construct: purchased Eurofins (KinaseProfiler)
T6 sequence (P29376 17-864): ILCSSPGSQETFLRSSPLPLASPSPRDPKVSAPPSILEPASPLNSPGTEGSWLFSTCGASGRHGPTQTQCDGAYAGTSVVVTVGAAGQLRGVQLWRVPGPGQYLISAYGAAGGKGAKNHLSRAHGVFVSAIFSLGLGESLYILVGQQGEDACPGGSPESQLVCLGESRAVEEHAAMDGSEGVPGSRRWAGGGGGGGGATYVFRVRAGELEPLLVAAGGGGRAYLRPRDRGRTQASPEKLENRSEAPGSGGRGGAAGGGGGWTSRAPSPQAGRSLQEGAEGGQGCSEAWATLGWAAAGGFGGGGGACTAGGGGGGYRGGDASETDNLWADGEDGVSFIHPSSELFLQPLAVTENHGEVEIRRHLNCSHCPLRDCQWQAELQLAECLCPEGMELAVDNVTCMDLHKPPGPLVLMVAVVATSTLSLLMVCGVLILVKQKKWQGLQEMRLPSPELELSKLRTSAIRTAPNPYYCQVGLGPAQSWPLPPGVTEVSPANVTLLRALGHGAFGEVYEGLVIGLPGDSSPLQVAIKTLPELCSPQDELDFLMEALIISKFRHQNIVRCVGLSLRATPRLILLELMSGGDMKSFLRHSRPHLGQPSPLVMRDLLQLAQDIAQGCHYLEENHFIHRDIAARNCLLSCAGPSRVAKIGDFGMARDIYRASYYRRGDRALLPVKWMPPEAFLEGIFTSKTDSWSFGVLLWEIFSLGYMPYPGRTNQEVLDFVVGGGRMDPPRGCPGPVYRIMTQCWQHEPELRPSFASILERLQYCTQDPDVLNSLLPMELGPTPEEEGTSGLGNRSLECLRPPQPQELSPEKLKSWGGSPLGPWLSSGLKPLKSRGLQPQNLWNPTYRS

T1 sequence (Q8IY84 whole entry): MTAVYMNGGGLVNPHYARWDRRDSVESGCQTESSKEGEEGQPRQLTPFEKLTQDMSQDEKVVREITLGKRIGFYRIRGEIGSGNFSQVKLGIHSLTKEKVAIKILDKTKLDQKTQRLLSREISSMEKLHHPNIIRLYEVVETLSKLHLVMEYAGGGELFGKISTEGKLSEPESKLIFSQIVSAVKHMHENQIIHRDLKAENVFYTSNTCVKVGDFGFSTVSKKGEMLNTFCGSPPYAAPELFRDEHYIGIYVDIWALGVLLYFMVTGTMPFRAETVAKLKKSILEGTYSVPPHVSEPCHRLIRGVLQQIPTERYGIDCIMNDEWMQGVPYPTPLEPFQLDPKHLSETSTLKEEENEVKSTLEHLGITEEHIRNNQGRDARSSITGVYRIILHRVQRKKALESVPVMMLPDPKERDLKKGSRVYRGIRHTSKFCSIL

How did the inhibition at 0.01 µM (NIM1(h); 10 nM) turn out when COc1cc(OC)c(Cl)c(-c2ccc3c(NC(=O)c4ccc(N5CCNC(C)(C)C5)cc4)n[nH]c3n2)c1Cl [3D185] was run?
The inhibition at 0.01 µM was -9%.

And the inhibition at 0.1 µM (NIM1(h); 100 nM)?
The inhibition at 0.1 µM was 0%.

What about the inhibition at 1 µM (NIM1(h); 1000 nM) of the same molecule?
Its inhibition at 1 µM is 0%.

And the inhibition at 0.01 µM (TTK(h); 10 nM)?
The inhibition at 0.01 µM was 5%.

What about the inhibition at 0.1 µM (TTK(h); 100 nM) of the same molecule?
The inhibition at 0.1 µM was -2%.

What about the inhibition at 1 µM (TTK(h); 1000 nM) of the same molecule?
Its inhibition at 1 µM is 12%.

And the inhibition at 0.01 µM ([1]; 10 nM)?
Its inhibition at 0.01 µM is -1%.

What about the inhibition at 0.1 µM ([1]; 100 nM) of the same molecule?
The inhibition at 0.1 µM was 1%.

What about the inhibition at 1 µM ([1]; 1000 nM) of the same molecule?
Its inhibition at 1 µM is 2%.

What about the inhibition at 0.01 µM (SLK(h); 10 nM) of the same molecule?
Its inhibition at 0.01 µM is 10%.

And the inhibition at 0.1 µM (SLK(h); 100 nM)?
The inhibition at 0.1 µM was 34%.

And the inhibition at 1 µM (SLK(h); 1000 nM)?
Its inhibition at 1 µM is 81%.

What about the inhibition at 0.01 µM (Rse(h); 10 nM) of the same molecule?
The inhibition at 0.01 µM was 5%.

And the inhibition at 0.1 µM (Rse(h); 100 nM)?
Its inhibition at 0.1 µM is -2%.

What about the inhibition at 1 µM (Rse(h); 1000 nM) of the same molecule?
Its inhibition at 1 µM is 16%.

What about the inhibition at 0.01 µM (LTK(h); 10 nM) of the same molecule?
Its inhibition at 0.01 µM is -8%.

What about the inhibition at 0.1 µM (LTK(h); 100 nM) of the same molecule?
Its inhibition at 0.1 µM is 1%.

What about the inhibition at 1 µM (LTK(h); 1000 nM) of the same molecule?
The inhibition at 1 µM was 37%.

Reference: publication PMC6704710, “Preclinical evaluation of 3D185, a novel potent inhibitor of FGFR1/2/3 and CSF-1R, in FGFR-dependent and macrophage-dominant cancer models” (Journal of Experimental & Clinical Cancer Research : CR, 2019)
